The source of these data is paper PMC10056348, “Photocaged Histone Deacetylase Inhibitors as Prodrugs in Targeted Cancer Therapy” (Pharmaceuticals, 2023).

Read-outs that look alike come from different tables or passages of the source. Bounds are passed on as bounds.

One test relates to MV-3 cell line. The test can be described thus: MTT cell viability assay, MV-3. The format is cell-based. How it is done:
(§1) The amelanotic melanoma cell line MV-3 was obtained from EPO GmbH Berlin-Buch. The human ovarian carcinoma cell line A2780 was obtained from the European Collection of Cell Cultures (ECACC, Salisbury, UK). The cell lines were cultivated in RPMI 1640 medium supplemented with 10% fetal bovine serum and 50 U/mL penicillin and 50 µg/mL streptomycin and incubated at 37 °C under humidified air with 5% CO2 to 80–90% confluency before being used in further assays.
(§2) For this, 200-fold dilution series of the compounds of the respective stock solutions in DMSO (10 mM) were prepared in DMSO using clear U-bottom 96-well microplates (Greiner Bio-One, Greiner AG, Kremsmünster, Austria). Predilutions intended for photolysis experiments were irradiated for 10 min in the UV reactor described above. Thereafter, all predilutions were further diluted 1:200 in medium and provided in clear sterile F-bottom 96-well plates (Starlab GmbH, Hamburg, Germany). MV-3 cells were added at a density of 3000 cells/well and A2780 cells at a density of 8000 cells/well. The cells were added directly and without prior attachment. Final volume was 200 µL, and the final DMSO concentration was 0,5%. After 72 h, 40 µL MTT (3-(4,5-dimethylthiazol-2-yl)-2,5-diphenyltetrazolium bromide; BioChemica, Applichem GmbH, Darmstadt, Germany ) solution (5 mg/mL in phosphate-buffered saline) was added to determine cell survival. The formazan dye was dissolved in DMSO (Sigma-Aldrich, Steinheim, Germany) after 1 h, and absorbance was measured at 570 nm and 690 nm using a Multiskan microplate photometer (Thermo Fisher Scientific, Waltham, MA, USA). Concentration-effect curves were generated using the four-parameter logistic equation (GraphPad Prism 9.0, San Diego, CA, USA), and mean IC50 values were determined by nonlinear regression based on at least three distinct experiments in duplicates.
(Tetrazolium assays rely on reduction of a dye to a coloured formazan, in cell work by metabolically active cells.)

Test [1] concerns cellular HDAC activity in MV-3 cells. The test can be described thus: HDAC whole-cell assay. In kind it is cell-based. Conditions: for IC50: read-out: IC50 whole-cell HDAC inhibition. How it is done:
as §1
The HDAC whole-cell assay is based on the assay established by Ciossek et al. and Bonfils et al., with minor changes. Melanoma cells MV-3 were seeded in concentration of 15 × 10^3 cells/well (total volume of 81 µL) in 96-well cell-culture microplates (Catalog# 655086, Greiner Bio-One, Frickenhausen, Germany ) and cultured for 24 h. Aliquots of the DMSO stock solutions (10 mM) designated for photolysis were irradiated for 10 min with the UV reactor (see Section 4.3). The stock solutions processed with or without irradiation were used to perform a 4-fold serial dilution in PBS. Next, the cells were treated with 9 µL of the serial dilution for 18 h. For the analysis of the remaining HDAC activity, 10 µL of substrate solution, containing 3 mM Boc-Lys(ε-Ac)-AMC (Catalog# 233691-67-3, BLD pharmatech GmbH, Kaiserslautern, Germany) and 0.5% IGEPAL CA-630 (Catalog# J61055, Alfa Aesar, Thermo Fisher Scientific, Heysham, United Kingdom), was added and incubated for 3 h under cell culture conditions. The reaction was stopped with 100 µL of stop solution (50 mM Tris-HCl, 137 mM NaCl, 2.7 mM KCl, 1 mM MgCl2, 1% IGEPAL CA-630, 10 µM vorinostat, 2.0 mg/mL trypsin) and developed for 1.5 h under cell culture conditions. The fluorescence signal was measured using a Spark multimode microplate reader (Tecan Group AG, Männedorf, Swiss) at excitation wavelength of λ = 355 nm and emission wavelength of λ = 460 nm. Concentration-effect curves were generated using the four-parameter logistic equation (GraphPad Prism 9.0, San Diego, CA, USA), and mean IC50 values were determined by nonlinear regression based on at least three independent experiments in duplicates.

In the next test the test system is A2780 cell line. The test can be described thus: MTT cell viability assay, A2780. The format is cell-based, human. How it is done: as §1, §2
For a further test, the system named is HepG2 cancer cell line. More on the design: method as in PMID 30664827. Conditions: cited from earlier work.
Test [2] has as its system asexual blood stage and liver stage parasites. More on the design: method as in PMID 30664827. Conditions: cited from earlier work.
The mark [3] stands for this setting: MTT, 72 h, without UV irradiation.

The term IC50 denotes the concentration that inhibits the measured activity by half. In the case of `CN(C)c1ccc(C(=O)N(CC(=O)NCc2ccccc2)Cc2ccc(C(=O)NO)cc2)cc1` [I, N-[2-(benzylamino)-2-oxoethyl]-4-(dimethylamino)-N-[4-(hydroxycarbamoyl)-benzyl]-benzamide], the IC50 in the test with MV-3 cell line (MV-3, light or radiation study, MTT, 72 h, without UV irradiation) came out at 616 ± 161 nM; in test [1] (18 h, without UV irradiation), 90.6 ± 5.74 nM; in test [1] (MV-3, light or radiation study, 18 h, without UV irradiation), 91 nM; with A2780 cell line (Homo sapiens, A2780, light or radiation study, MTT, 72 h, without UV irradiation) it was 249 ± 84.7 nM. In addition, the “antiproliferative activity against HepG2” value in the test on HepG2 cancer cell line is listed as “submicromolar antiproliferative activity”. Further, in test [2], the antiplasmodial activity entry is “potent antiplasmodial activity”.
As usually defined, the inhibition is the change of the read-out against control, counted positive when it falls. Regarding `COc1cc(CONC(=O)c2ccc(CN(CC(=O)NCc3ccccc3)C(=O)c3ccc(N(C)C)cc3)cc2)c([N+](=O)[O-])cc1OC` [pc-I, N-[2-(Benzylamino)-2-oxoethyl]-N-(4-{[(4,5-dimethoxy-2-nitrobenzyl)oxy]carbamoyl}benzyl)-4-(dimethylamino)benzamide], the “IC50 (MV-3)” value in the test on MV-3 cell line (setting [3]) is listed as “n.e. ^b (n.e— no effect: <25% inhibition at 25 µM)”. Moreover, the IC50 in the test on MV-3 cell line (MV-3, light or radiation study, MTT, 72 h, after UV irradiation (365 nm, 10 min)) is 727 ± 133 nM; in test [1] (light or radiation study, 18 h, after UV irradiation (365 nm, 10 min)), 73 nM; in the test with A2780 cell line (Homo sapiens, A2780, light or radiation study, MTT, 72 h, after UV irradiation (365 nm, 10 min)) it was 428 ± 62.5 nM. The inhibition at 25 µM in the test with MV-3 cell line (MV-3, light or radiation study, at 25 µM, without UV irradiation) was under 25%; in test [1] (light or radiation study, at 25 µM, without UV irradiation) it was under 25%; in the test on A2780 cell line (Homo sapiens, A2780, light or radiation study, at 25 µM, without UV irradiation), under 25%. Further, in test [1] (18 h, without UV irradiation), the “IC50 whole-cell HDAC inhibition” value was “n.e. (no effect: <25% inhibition at 25 µM)”. Also, in the test with A2780 cell line (setting [3]), the “IC50 (A2780)” value is listed as “n.e. ^b (n.e— no effect: <25% inhibition at 25 µM)”.
